According to patent US9320727B2, “Combinations of SGLT 2 inhibitors and antihypertensive drugs” (TAISHO PHARMACEUTICAL CO., LTD, priority 2012, dated 2016):

Legend:
Assay type in all cases: in vivo, rat
[1] = system: T2DN rats; assay: Diabetic nephropathy model (T2DN rats): renocortical (interstitial) fibrosis area by image analyzer; details: compound A 0.02% in mixed diet, lisinopril 10 mg/kg/day in drinking water, alone or combined, three months, FIG. 3
Description: (§1) The effect of compound A combined with ACE inhibitor in rats as a diabetic nephropathy model.
(§2) The test was conducted with rats (T2DN rats) that were an inbred line of Goto-Kakizaki (GK) rats with a manifestation of type II diabetes mellitus and which were in an advanced stage of kidney tissue injury resulting from a long-continued diabetic condition. Rats in groups each consisting of 8-9 animals (aged 14 months on average) were given repeated doses of compound A (0.02% in mixed diet) and the ACE inhibitor lisinopril (10 mg/kg/day in drinking water), either independently or in combination, for three months. A group of rats receiving only a diet containing no compound A were pathologic controls. Before and one month after the dosing, blood pressure measurement was conducted by the tail cuff method using a noninvasive automatic hemodynamometer. After the repeated dosing, the kidneys were removed from each rat under anesthetization with ketamine and thiobutabarbital and fixed in 10% neutral buffered formalin. Thin slices of the kidneys were prepared and subjected to Masson's trichrome stain. After masking the tissue specimens, thirty glomeruli were extracted from each specimen.
To evaluate the morbidity of interstitial fibrosis, the fibrotic area percentage of 10 regions per specimen was calculated on an image analyzer.

[2] = system: T2DN rats; assay: Diabetic nephropathy model (T2DN rats): blood pressure by tail cuff method; details: compound A 0.02% in mixed diet, lisinopril 10 mg/kg/day in drinking water, alone or combined, before and one month after dosing, FIG. 1
Description: as §1, §2
Blood pressure was expressed by the mean blood pressure as calculated from systolic and diastolic pressures ((systolic pressure−diastolic pressure)/3+diastolic pressure)).

[3] = system: T2DN rats; assay: Diabetic nephropathy model (T2DN rats): glomerular injury score, Masson's trichrome stain; details: compound A 0.02% in mixed diet, lisinopril 10 mg/kg/day in drinking water, alone or combined, three months, grade 0-4, 30 glomeruli, FIG. 2
Description: as §1, §2

[4] = system: Goto-Kakizaki (GK) rats; assay: Diabetic animal model (GK rats): systolic blood pressure by tail cuff method, crossover; details: GK rats on high-glucose diet; compound A in mixed diet, valsartan single oral dose, alone or combined; 1, 2, 4, 6 hours after administration; FIG. 4
Text: The effect of compound A combined with angiotensin II receptor blocker in rats as a diabetic model. Goto-Kakizaki (GK) rats as model animals spontaneously manifesting non-obese diabetes mellitus (Japan SLC, Inc.) were fed a high-glucose diet containing compound A. During the feeding of compound A in a mixed diet, a vehicle or an angiotensin II receptor blocker was orally administered in a single dose and the effects of the two drugs, administered either independently or in combination, on blood pressure were studied by the crossover method. The systolic blood pressure was measured by the tail cuff method using a non-heated, noninvasive hemodynamometer immediately before the oral administration of the angiotensin II receptor blocker and 1, 2, 4, and 6 hours after such administration.

| Structure (SMILES) | renocortical fibrosis score (area of kidney interstitial fibrosis) [1] | blood pressure lowering action (mean blood pressure) [2] | glomerular injury score (improvement of scores of glomerular damage) [3] | action for lowering the systolic blood pressure [4] |
| --- | --- | --- | --- | --- |
| NCCCC[C@H](N[C@@H](CCc1ccccc1)C(=O)O)C(=O)N1CCC[C@H]1C(=O)O [Lisinopril, lisinopril] | no improvement in the area of interstitial fibrosis | a certain level of blood pressure lowering action | effective in improving scores of glomerular damage | – |
| CCOc1ccc(Cc2cc([C@@H]3S[C@H](CO)[C@@H](O)[C@H](O)[C@H]3O)c(OC)cc2C)cc1 [Compound A, (1S)-1,5-anhydro-1-[3-(4-ethoxybenzyl)-6-methoxy-4-methylphenyl]-1-thio-D-glucitol] | effective in ameliorating kidney tissue damage | little blood pressure lowering action | effective in improving scores of glomerular damage | little blood lowering action |
| CCCCC(=O)N(Cc1ccc(-c2ccccc2-c2nnn[nH]2)cc1)[C@H](C(=O)O)C(C)C [Valsartan, valsartan] | – | – | – | a certain level of action for lowering the systolic blood pressure |
